Test results taken from ChEMBL document CHEMBL6092167, “Phosphorylation as an Effective Tool to Improve Stability and Reduce Toxicity of Antimicrobial Peptides” (J Med Chem, 2024).
The source made the active and inactive calls. The calls are words filed in the database; no cut-off is given here. Non-standard residues stand in square brackets, D forms with d. Residues, ends and D or L forms follow the SMILES beside them. Bip = N[C@@H](Cc1ccc(-c2ccccc2)cc1)C(=O)O; pY = N[C@@H](Cc1ccc(OP(=O)(O)O)cc1)C(=O)O

Assays:
[1] = system: Staphylococcus aureus; experiment: Antibacterial activity against Staphylococcus aureus ATCC 25923 in presence of ZnCl2; assay type: functional, organism-based
[2] = system: Staphylococcus aureus; experiment: Antibacterial activity against Staphylococcus aureus ATCC 25923 infected in BALB/c mouse systemic infection model assessed as reduction in bacterial load in liver at 21.21 mg/kg, ip pre-infected for 2 hrs followed by compound addition and measured after 8 hrs postinfection; assay type: functional, organism-based; conditions: time 6.0 hrs
[3] = Toxicity in ip dosed BALB/c mouse assessed as liver bleeding at LD50 dose by H and E staining based assay; assay type: organism-based; conditions: in vivo
[4] = system: Klebsiella pneumoniae; experiment: Antibacterial activity against Klebsiella pneumoniae ATCC 700603 infected in BALB/c mouse lung infection model assessed as improved alveolar aggregation at 5.31 mg/kg, ip administered twice daily for 3 days and measured after 7 days; assay type: functional, organism-based; conditions: time 10.0 day
[5] = system: Klebsiella pneumoniae; experiment: Antibacterial activity against Klebsiella pneumoniae ATCC 700603 infected in BALB/c mouse lung infection model assessed as increased healing at 5.31 mg/kg, ip administered twice daily for 3 days and measured for 7 days; assay type: functional, organism-based; conditions: time 10.0 day
[6] = Toxicity in ip dosed BALB/c mouse assessed as effect on lung at LD50 dose by H and E staining based assay; assay type: organism-based; conditions: in vivo
[7] = system: Staphylococcus aureus; experiment: Antibacterial activity against Staphylococcus aureus ATCC 25923 infected in BALB/c mouse systemic infection model assessed as reduction in bacterial load in lung at 21.21 mg/kg, ip pre-infected for 2 hrs followed by compound addition and measured after 8 hrs postinfection; assay type: functional, organism-based; conditions: time 6.0 hrs
[8] = system: Escherichia coli; experiment: Antibacterial activity against Escherichia coli ATCC 25922 in presence of […]; assay type: functional, organism-based
[9] = system: Staphylococcus aureus; experiment: Antibacterial activity against Staphylococcus aureus ATCC 25923 in presence of KCl; assay type: functional, organism-based
[10] = system: Escherichia coli; experiment: Antibacterial activity against Escherichia coli ATCC 25922 in presence of ZnCl2; assay type: functional, organism-based
[11] = system: Staphylococcus aureus; experiment: Antibacterial activity against Staphylococcus aureus ATCC 25923 infected in BALB/c mouse systemic infection model assessed as improved alveoli dilation at 21.21 mg/kg, ip pre-infected for 2 hrs followed by compound addition and measured after 8 hrs postinfection; assay type: functional, organism-based; conditions: time 6.0 hrs
[12] = Toxicity in ip dosed BALB/c mouse assessed as kidney bleeding at LD50 dose by H and E staining based assay; assay type: organism-based; conditions: in vivo
[13] = Toxicity in ip dosed BALB/c mouse assessed as kidney edema at LD50 dose by H and E staining based assay; assay type: organism-based; conditions: in vivo
[14] = system: Staphylococcus aureus; experiment: Bactericidal activity against Staphylococcus aureus ATCC 25923 at 2 times MIC within 120 mins by time kill assay; assay type: functional, organism-based
[15] = system: Escherichia coli; experiment: Antibacterial activity against Escherichia coli ATCC 25922 in presence of FeCl3; assay type: functional, organism-based
[16] = system: Staphylococcus aureus; experiment: Antibacterial activity against Staphylococcus aureus ATCC 25923 infected in BALB/c mouse systemic infection model assessed as reduction in inflammatory response in lung tissue at 21.21 mg/kg, ip pre-infected for 2 hrs followed by compound addition and measured after 8 hrs postinfection; assay type: functional, organism-based; conditions: time 6.0 hrs
[17] = system: Escherichia coli; experiment: Antibacterial activity against Escherichia coli ATCC 25922 preincubated with serum for 6 hrs followed by 15 mins inactivation prior to bacteria addition and measured after 18 to 24 hrs; assay type: functional, organism-based; conditions: time 18-24 hrs
[18] = system: Staphylococcus aureus; experiment: Antibacterial activity against Staphylococcus aureus ATCC 25923 in presence of MgCl2; assay type: functional, organism-based
[19] = system: Klebsiella pneumoniae; experiment: Bactericidal activity against Klebsiella pneumoniae ATCC 700603 at 2 times MIC within 60 mins by time kill assay; assay type: functional, organism-based
[20] = system: Staphylococcus aureus; experiment: Antibacterial activity against Staphylococcus aureus ATCC 25923 preincubated with serum for 6 hrs followed by 15 mins inactivation prior to bacteria addition and measured after 18 to 24 hrs; assay type: functional, organism-based; conditions: time 18-24 hrs
[21] = system: Staphylococcus aureus; experiment: Antibacterial activity against Staphylococcus aureus ATCC 25923 infected in BALB/c mouse systemic infection model assessed as reduction in bacterial load in liver at 20 mg/kg, ip pre-infected for 2 hrs followed by compound addition and measured after 8 hrs postinfection; assay type: functional, organism-based; conditions: time 6.0 hrs
[22] = system: Staphylococcus aureus; experiment: Antibacterial activity against Staphylococcus aureus ATCC 25923 assessed as fold increase in MIC preincubated with serum for 6 hrs followed by 15 mins inactivation prior to bacteria addition and measured after 18 to 24 hrs; assay type: functional; conditions: time 18-24 hrs
[23] = Toxicity in ip dosed BALB/c mouse assessed as inflammatory cell infiltration in lung at LD50 dose by H and E staining based assay; assay type: organism-based; conditions: in vivo
[24] = system: Klebsiella pneumoniae; experiment: Antibacterial activity against Klebsiella pneumoniae ATCC 700603 infected in BALB/c mouse lung infection model assessed as increased healing at 5 mg/kg, ip administered twice daily for 3 days and measured for 7 days; assay type: functional, organism-based; conditions: time 10.0 day
[25] = system: Staphylococcus aureus; experiment: Antibacterial activity against Staphylococcus aureus ATCC 25923 infected in BALB/c mouse systemic infection model assessed as reduction in inflammatory response in lung tissue at 20 mg/kg, ip pre-infected for 2 hrs followed by compound addition and measured after 8 hrs postinfection; assay type: functional, organism-based; conditions: time 6.0 hrs
[26] = system: Klebsiella pneumoniae; experiment: Bactericidal activity against Klebsiella pneumoniae ATCC 700603 at 2 times MIC measured upto 1440 mins by time kill assay; assay type: functional, organism-based
[27] = Toxicity in ip dosed BALB/c mouse assessed as hemorrhage in kidney at LD50 dose by H and E staining based assay; assay type: organism-based; conditions: in vivo

With CC(C)C[C@H](NC(=O)[C@H](CC(C)C)NC(=O)[C@H](Cc1ccc(OP(=O)(O)O)cc1)NC(=O)[C@H](CCCCN)NC(=O)[C@H](CC(C)C)NC(=O)[C@H](CCCNC(=N)N)NC(=O)[C@H](CCCCN)NC(=O)[C@H](Cc1ccc(-c2ccccc2)cc1)NC(=O)[C@H](CC(C)C)NC(=O)CN)C(N)=O (H-GL[Bip]KRLK[pY]LL-NH2) the Activity [1] was “Active; Compound Showed Excellent Tolerance Towards Salt Environment”, the Activity [2] was “Active” and the Activity [3] was “Toxic”. The Activity [4] was “Active”, the Activity [5] was “Active” and the Activity [6] was “Toxic”. The Activity [7] was “Active”, the Activity [8] was “Active; Compound Showed Excellent Tolerance Towards Salt Environment” and the Activity [9] was “Active; Compound Showed Excellent Tolerance Towards Salt Environment”. For the same compound, the Activity [10] was “Active; Compound Showed Excellent Tolerance Towards Salt Environment”, the Activity [11] was “Active” and the Activity [12] was “Toxic”. The Activity [13] was “Toxic”, the Activity [14] was “Active” and the Activity [15] was “Active; Compound Showed Excellent Tolerance Towards Salt Environment”. For the same compound, the Activity [16] was “Active”, the Activity [17] was “Active; Antibacterial Activity Remained Unaffected” and the Activity [18] was “Active; Compound Showed Excellent Tolerance Towards Salt Environment”. For the same compound, the Activity [19] was “Active” and the Activity [20] was “Active; Antibacterial Activity Remained Unaffected”.

In the case of CC(C)C[C@H](NC(=O)[C@H](CC(C)C)NC(=O)[C@H](Cc1ccc(O)cc1)NC(=O)[C@H](CCCCN)NC(=O)[C@H](CC(C)C)NC(=O)[C@H](CCCNC(=N)N)NC(=O)[C@H](CCCCN)NC(=O)[C@H](Cc1ccc(-c2ccccc2)cc1)NC(=O)[C@H](CC(C)C)NC(=O)CN)C(N)=O (H-GL[Bip]KRLKYLL-NH2), the Activity [21] is reported as “Active”, the “fold change (FC)” value [22] is reported as 2 and the Activity [23] is reported as “Toxic”. For the same compound, the Activity [24] was “Active”, the Activity [25] was “Active” and the Activity [26] was “Active”. The Activity [27] was “Toxic”.
